We go through 24 molecules from PubChem BioAssay (NCI).

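Compound exposure: 48 hours, 5 concentrations, 96-well plates. Abbreviation: GI50, concentration required for 50% inhibition of growth. Definition used: TGI = concentration required for complete inhibition of growth.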 Where a SMILES comes first, the peptide text is derived from it. [ ]: non-standard residue; d: D form. The star is where a group is joined. NMeAc5c = CNC1(C(=O)O)CCCC1; Boc = CC(C)(C)OC(=O)*; OBn = c1ccc(CO*)cc1

In the first assay the test system is SF-295 CNS. The assay is described as follows: NCI-60 cell line screen, 48 h.
`C1CN(c2nc3c(nnc4nc(N5CCOCC5)sc43)s2)CCO1` returned a TGI above 100 µM.

The molecule `COC(=O)c1c(C)cccc1C1CN=NC12Cc1ccc(C)cc1C2=O` (centres undefined) returned a TGI above 100 µM.

`c1ccc(N=c2sc3ccccc3nc2Nc2ccccc2)cc1`: the TGI is above 100 µM.

Regarding `CCC(C(=O)O)c1ccc(OC)cc1` (centres undefined), the TGI was above 100 µM.

In turn, `ClCCN1CCC2(CC1)SSC1(CCN(CCCl)CC1)S2` showed a TGI of 92.5 µM.

Take `Nc1nc(SCCc2ccccc2)c2[nH]cnc2n1`: the TGI is above 100 µM.

Regarding `NC(=O)NCCCC(NC(=O)OCCCCn1ccc(=O)[nH]c1=O)C(=O)O` (centres undefined), the TGI was above 100 µM.

`c1ccc(-c2nc(-c3ccccc3SSc3ccccc3-c3nc(-c4ccccc4)nn3-c3ccccc3)n(-c3ccccc3)n2)cc1` returned a TGI above 100 µM.

Molecule `CC(C)CCS(=O)(=O)OCCCCOS(=O)(=O)CCC(C)C` had a TGI above 100 µM.

As for `Cc1ccc(-c2n[nH]c(=O)n2N2C(=O)c3ccccc3C2=O)cc1`, the TGI was above 100 µM.

Molecule `CN(C(=O)C(Cc1ccccc1)NC(=O)OC(C)(C)C)C1(C(=O)NC(Cc2ccccc2)C(=O)OCc2ccccc2)CCCC1` (stereo not drawn) (Boc-Phe-[NMeAc5c]-Phe-OBn; configuration not given here) registered a TGI above 100 µM.

The molecule `CCCCC#C[I+]c1ccccc1` came in with a TGI of 43.5 µM.

Consider `COc1cc2c(c(OC)c1OC)C(=O)[C@@H]1[C@H]2N1C(N)=O`, for which the TGI is above 100 µM.

As to `N#Cc1c(N2CCCC2)ncn(-c2ccccc2)c1=O`, the TGI was above 100 µM.

`COc1ccc2c(c1)/C(=C/CCN(C)C)c1ccccc1S2` returned a TGI above 100 µM.

The molecule `N#CC1(C#N)N[C@@H](c2ccsc2)[C@H]2C(=O)N(c3ccccc3)C(=O)[C@H]21` yielded a TGI above 100 µM.

The next assay has as its system CCRF-CEM leukemia. The assay is described as follows: NCI-60 cell line screen, 48 h.
`COc1ccc(-c2cc(O)c3nc4ccccc4n3c2)cc1` showed a TGI above 100 µM.

Take `CCOC(=O)c1csc(NC(=O)CN2CCOCC2)n1`: the TGI was above 100 µM.

`CC(C)(C)OC(=O)N[C@H]1CCN(C2CCCCC2)C1=O` displayed a TGI above 100 µM.

`Nn1c(-c2ccccc2)nn(C(=O)c2ccccc2)c1=O`: the TGI is above 100 µM.

In the case of `O=C(NC(=O)c1ccccc1[N+](=O)[O-])Nc1ccc(Oc2ncc(Br)cn2)c(Cl)c1`, the GI50 was below 19.4 nM.

Molecule `O=c1ccc(-c2ccccc2)n[nH]1` yielded a TGI above 100 µM.

`CN1CCc2cc(N)cc3c2C1Cc1ccc(O)c(O)c1-3` (centres undefined) gave a TGI of 37.2 µM.

Turning to `C1CN(c2nc3c(nnc4nc(N5CCOCC5)sc43)s2)CCO1`, the TGI was above 100 µM.

`COC(=O)c1c(C)cccc1C1CN=NC12Cc1ccc(C)cc1C2=O` (centres undefined): the TGI is above 100 µM.

For the molecule `c1ccc(N=c2sc3ccccc3nc2Nc2ccccc2)cc1`, the TGI is above 100 µM.

Molecule `CCC(C(=O)O)c1ccc(OC)cc1` (centres undefined) returned a TGI above 100 µM.

Molecule `ClCCN1CCC2(CC1)SSC1(CCN(CCCl)CC1)S2` yielded a TGI of 55.6 µM.

As for `Nc1nc(SCCc2ccccc2)c2[nH]cnc2n1`, the TGI was above 100 µM.

`NC(=O)NCCCC(NC(=O)OCCCCn1ccc(=O)[nH]c1=O)C(=O)O` (centres undefined): the TGI was above 100 µM.

The molecule `c1ccc(-c2nc(-c3ccccc3SSc3ccccc3-c3nc(-c4ccccc4)nn3-c3ccccc3)n(-c3ccccc3)n2)cc1` returned a TGI above 100 µM.

`CC(C)CCS(=O)(=O)OCCCCOS(=O)(=O)CCC(C)C` had a TGI above 100 µM.

In the case of `CN(C(=O)C(Cc1ccccc1)NC(=O)OC(C)(C)C)C1(C(=O)NC(Cc2ccccc2)C(=O)OCc2ccccc2)CCCC1` (stereo not drawn) (Boc-Phe-[NMeAc5c]-Phe-OBn; configuration not given here), the TGI is above 100 µM.

On to `CCCCC#C[I+]c1ccccc1`, for which the TGI worked out at 24.4 µM.

`COc1cc2c(c(OC)c1OC)C(=O)[C@@H]1[C@H]2N1C(N)=O` gave a TGI above 100 µM.

In the case of `N#Cc1c(N2CCCC2)ncn(-c2ccccc2)c1=O`, the TGI is above 100 µM.

Take `COc1ccc2c(c1)/C(=C/CCN(C)C)c1ccccc1S2`: the TGI was above 100 µM.

`Cc1c(O)c(O)cc[n+]1C1OC(CO)C(O)C1O` (centres undefined) registered a TGI above 100 µM.

The test system of a further assay is U251 CNS. The assay is described as follows: NCI-60 cell line screen, 48 h.
As for `COc1ccc(-c2cc(O)c3nc4ccccc4n3c2)cc1`, the TGI is above 100 µM.

`CCOC(=O)c1csc(NC(=O)CN2CCOCC2)n1`: the TGI is above 100 µM.

As for `CC(C)(C)OC(=O)N[C@H]1CCN(C2CCCCC2)C1=O`, the TGI was above 100 µM.

`Nn1c(-c2ccccc2)nn(C(=O)c2ccccc2)c1=O` yielded a TGI above 100 µM.

With `O=C(NC(=O)c1ccccc1[N+](=O)[O-])Nc1ccc(Oc2ncc(Br)cn2)c(Cl)c1`, the GI50 is below 18.5 nM and the TGI is above 64.4 µM.

The molecule `O=c1ccc(-c2ccccc2)n[nH]1` showed a TGI above 100 µM.

As to `CN1CCc2cc(N)cc3c2C1Cc1ccc(O)c(O)c1-3` (centres undefined), the TGI is above 100 µM.

`C1CN(c2nc3c(nnc4nc(N5CCOCC5)sc43)s2)CCO1` gave a TGI above 100 µM.

`COC(=O)c1c(C)cccc1C1CN=NC12Cc1ccc(C)cc1C2=O` (centres undefined): the TGI was above 100 µM.

As for `c1ccc(N=c2sc3ccccc3nc2Nc2ccccc2)cc1`, the TGI was above 100 µM.

For the molecule `CCC(C(=O)O)c1ccc(OC)cc1` (centres undefined), the TGI was above 100 µM.

`ClCCN1CCC2(CC1)SSC1(CCN(CCCl)CC1)S2` registered a TGI above 100 µM.

The molecule `Nc1nc(SCCc2ccccc2)c2[nH]cnc2n1` displayed a TGI above 100 µM.

With `NC(=O)NCCCC(NC(=O)OCCCCn1ccc(=O)[nH]c1=O)C(=O)O` (centres undefined), the TGI was above 100 µM.

Consider `c1ccc(-c2nc(-c3ccccc3SSc3ccccc3-c3nc(-c4ccccc4)nn3-c3ccccc3)n(-c3ccccc3)n2)cc1`, for which the TGI is above 100 µM.

Molecule `CC(C)CCS(=O)(=O)OCCCCOS(=O)(=O)CCC(C)C` displayed a TGI above 100 µM.

Consider `Cc1ccc(-c2n[nH]c(=O)n2N2C(=O)c3ccccc3C2=O)cc1`, for which the TGI was above 100 µM.

The molecule `CN(C(=O)C(Cc1ccccc1)NC(=O)OC(C)(C)C)C1(C(=O)NC(Cc2ccccc2)C(=O)OCc2ccccc2)CCCC1` (stereo not drawn) (Boc-Phe-[NMeAc5c]-Phe-OBn; configuration not given here) registered a TGI of 51.1 µM.

The molecule `CCCCC#C[I+]c1ccccc1` returned a TGI of 29.9 µM.

Turning to `COc1cc2c(c(OC)c1OC)C(=O)[C@@H]1[C@H]2N1C(N)=O`, the TGI was above 100 µM.

For the molecule `N#Cc1c(N2CCCC2)ncn(-c2ccccc2)c1=O`, the TGI was above 100 µM.

As for `COc1ccc2c(c1)/C(=C/CCN(C)C)c1ccccc1S2`, the TGI was above 100 µM.

Turning to `N#CC1(C#N)N[C@@H](c2ccsc2)[C@H]2C(=O)N(c3ccccc3)C(=O)[C@H]21`, the TGI was above 100 µM.

`Cc1c(O)c(O)cc[n+]1C1OC(CO)C(O)C1O` (centres undefined) gave a TGI above 100 µM.

The next assay deals with RPMI-8226 leukemia. The assay is described as follows: NCI-60 cell line screen, 48 h.
In turn, `COc1ccc(-c2cc(O)c3nc4ccccc4n3c2)cc1` had a TGI above 100 µM.

For `CCOC(=O)c1csc(NC(=O)CN2CCOCC2)n1`, the TGI is above 100 µM.

With `CC(C)(C)OC(=O)N[C@H]1CCN(C2CCCCC2)C1=O`, the TGI was above 100 µM.

`Nn1c(-c2ccccc2)nn(C(=O)c2ccccc2)c1=O` had a TGI above 100 µM.

For `O=C(NC(=O)c1ccccc1[N+](=O)[O-])Nc1ccc(Oc2ncc(Br)cn2)c(Cl)c1`, the GI50 was below 20 nM.

`CN1CCc2cc(N)cc3c2C1Cc1ccc(O)c(O)c1-3` (centres undefined) registered a TGI of 66.4 µM.

The molecule `C1CN(c2nc3c(nnc4nc(N5CCOCC5)sc43)s2)CCO1` came in with a TGI above 100 µM.

In the case of `COC(=O)c1c(C)cccc1C1CN=NC12Cc1ccc(C)cc1C2=O` (centres undefined), the TGI was above 100 µM.

In the case of `c1ccc(N=c2sc3ccccc3nc2Nc2ccccc2)cc1`, the TGI was above 100 µM.

Molecule `CCC(C(=O)O)c1ccc(OC)cc1` (centres undefined) yielded a TGI above 100 µM.

Take `ClCCN1CCC2(CC1)SSC1(CCN(CCCl)CC1)S2`: the TGI stood at 57.1 µM.

`NC(=O)NCCCC(NC(=O)OCCCCn1ccc(=O)[nH]c1=O)C(=O)O` (centres undefined): the TGI is above 100 µM.

The molecule `c1ccc(-c2nc(-c3ccccc3SSc3ccccc3-c3nc(-c4ccccc4)nn3-c3ccccc3)n(-c3ccccc3)n2)cc1` returned a TGI above 100 µM.

In turn, `CC(C)CCS(=O)(=O)OCCCCOS(=O)(=O)CCC(C)C` came in with a TGI above 100 µM.

With `Cc1ccc(-c2n[nH]c(=O)n2N2C(=O)c3ccccc3C2=O)cc1`, the TGI is above 100 µM.

Take `CN(C(=O)C(Cc1ccccc1)NC(=O)OC(C)(C)C)C1(C(=O)NC(Cc2ccccc2)C(=O)OCc2ccccc2)CCCC1` (stereo not drawn) (Boc-Phe-[NMeAc5c]-Phe-OBn; configuration not given here): the TGI is 57.2 µM.

`COc1cc2c(c(OC)c1OC)C(=O)[C@@H]1[C@H]2N1C(N)=O` gave a TGI above 100 µM.

`N#Cc1c(N2CCCC2)ncn(-c2ccccc2)c1=O` had a TGI above 100 µM.

As to `N#CC1(C#N)N[C@@H](c2ccsc2)[C@H]2C(=O)N(c3ccccc3)C(=O)[C@H]21`, the TGI came out at 53.5 µM.

On to `Cc1c(O)c(O)cc[n+]1C1OC(CO)C(O)C1O` (centres undefined), for which the TGI is above 100 µM.

The next assay relates to SK-OV-3 ovarian. The experiment in a line: NCI-60 cell line screen, 48 h.
In turn, `CCOC(=O)c1csc(NC(=O)CN2CCOCC2)n1` had a TGI above 100 µM.

`CC(C)(C)OC(=O)N[C@H]1CCN(C2CCCCC2)C1=O` showed a TGI above 100 µM.

For `O=C(NC(=O)c1ccccc1[N+](=O)[O-])Nc1ccc(Oc2ncc(Br)cn2)c(Cl)c1`, the GI50 was below 17.6 nM.

`CN1CCc2cc(N)cc3c2C1Cc1ccc(O)c(O)c1-3` (centres undefined) returned a TGI above 100 µM.

Turning to `c1ccc(N=c2sc3ccccc3nc2Nc2ccccc2)cc1`, the TGI was above 100 µM.

With `CCC(C(=O)O)c1ccc(OC)cc1` (centres undefined), the TGI is above 100 µM.

Turning to `ClCCN1CCC2(CC1)SSC1(CCN(CCCl)CC1)S2`, the TGI is 98.7 µM.

Molecule `NC(=O)NCCCC(NC(=O)OCCCCn1ccc(=O)[nH]c1=O)C(=O)O` (centres undefined) returned a TGI above 100 µM.

The molecule `c1ccc(-c2nc(-c3ccccc3SSc3ccccc3-c3nc(-c4ccccc4)nn3-c3ccccc3)n(-c3ccccc3)n2)cc1` displayed a TGI above 100 µM.

The molecule `CC(C)CCS(=O)(=O)OCCCCOS(=O)(=O)CCC(C)C` registered a TGI above 100 µM.

With `CN(C(=O)C(Cc1ccccc1)NC(=O)OC(C)(C)C)C1(C(=O)NC(Cc2ccccc2)C(=O)OCc2ccccc2)CCCC1` (stereo not drawn) (Boc-Phe-[NMeAc5c]-Phe-OBn; configuration not given here), the TGI amounted to 41.3 µM.

The molecule `CCCCC#C[I+]c1ccccc1` came in with a TGI of 30.4 µM.

`N#Cc1c(N2CCCC2)ncn(-c2ccccc2)c1=O` yielded a TGI above 100 µM.

Molecule `COc1ccc2c(c1)/C(=C/CCN(C)C)c1ccccc1S2` gave a TGI above 100 µM.

The molecule `N#CC1(C#N)N[C@@H](c2ccsc2)[C@H]2C(=O)N(c3ccccc3)C(=O)[C@H]21` gave a TGI above 100 µM.

In turn, `Cc1c(O)c(O)cc[n+]1C1OC(CO)C(O)C1O` (centres undefined) displayed a TGI above 100 µM.
